The results in this text go back to US7238689B2, “Isoxazoline derivative and herbicide comprising the same as active ingredient” (Ihara Chemical Industry Co., Ltd., priority 2001, dated 2007).

One test deals with Echinochloa crus-galli (L.) Beauv. var. crusgalli. The test can be described thus: Herbicidal effect by upland field soil treatment. Details: scale not given here. Conditions: active ingredient 1000 g/ha, examined at 21st day from treatment. It is filed as in vivo. The text has this: (§1) An upland field soil was filled in a plastic pot of 80 cm^2. Seeds of Echinochloa crus-galli (L.) Beauv. var. crusgalli and Setaria viridis (L.) Beauv. were sowed, followed by covering with the same soil. […] Then, breeding was made in a greenhouse, and the herbicidal effect of each wettable powder was examined at the 21st day from the treatment in accordance with the standard shown in Table 21.
For the compound `CC1(C)CC(S(=O)(=O)Cc2nn(-c3ccccc3)cc2OC(F)F)=NO1` [6-0003], the “herbicidal effect (index per standard of Table 21), Echinochloa curs-galli (L.) Beauv. Var. crus-galli” value is 5.
The same measure, in the same setting: with `CCOc1snc(C)c1CS(=O)(=O)C1=NOC(C)(C)C1` [4-0008] the figure was 5; with `CC1(C)CC(S(=O)(=O)Cc2c(Cl)nn(CC#N)c2C(F)(F)F)=NO1` [3-0135], 5; with `CC1(C)CC(S(=O)(=O)Cc2c(Cl)nn(CS(C)(=O)=O)c2C(F)(F)F)=NO1` [3-0131], 5.
Regarding `CC1(C)CC(S(=O)(=O)Cc2c(Cl)nn(Cc3ccccc3)c2C(F)(F)F)=NO1` [3-0088], the “herbicidal effect (index per standard of Table 21), Echinochloa curs-galli (L.) Beauv. Var. crus-galli” value was found to be 5.
With `CC1(C)CC(S(=O)(=O)Cc2oc3ccccc3c2Br)=NO1` [10-0014], the “herbicidal effect (index per standard of Table 21), Echinochloa curs-galli (L.) Beauv. Var. crus-galli” value came to 5.
For `CC1(C)CC(S(=O)(=O)Cc2c(C(F)(F)F)nn(C3CCCCC3)c2Cl)=NO1` [3-0091], the “herbicidal effect (index per standard of Table 21), Echinochloa curs-galli (L.) Beauv. Var. crus-galli” value amounted to 5.
For the compound `CC1(C)CC(S(=O)(=O)Cc2c(C(F)(F)F)nn(Cc3ccccc3)c2Cl)=NO1` [3-0087], the “herbicidal effect (index per standard of Table 21), Echinochloa curs-galli (L.) Beauv. Var. crus-galli” value was 5.
The same measure, in the same setting: with `CSCn1nc(Cl)c(CS(=O)(=O)C2=NOC(C)(C)C2)c1C(F)(F)F` [3-0129] the figure was 5.
With `CC1(C)CC(S(=O)(=O)Cc2cc3ccccc3o2)=NO1` [10-0012], the “herbicidal effect (index per standard of Table 21), Echinochloa curs-galli (L.) Beauv. Var. crus-galli” value is reported as 5.
`Cc1ccc(CS(=O)(=O)C2=NOC(C)(C)C2)s1` [1-0003]: the “herbicidal effect (index per standard of Table 21), Echinochloa curs-galli (L.) Beauv. Var. crus-galli” value is reported as 5.
Still for that read-out and setting: the figure for `CCOc1c(C)nn(-c2ccccc2)c1CS(=O)(=O)C1=NOC(C)(C)C1` [5-0005] is 5.
In the case of `CC1(C)CC(S(=O)(=O)Cc2c(C(F)(F)F)nn(CS(C)(=O)=O)c2Cl)=NO1` [3-0130], the “herbicidal effect (index per standard of Table 21), Echinochloa curs-galli (L.) Beauv. Var. crus-galli” value was determined as 5.

The next test concerns Setaria viridis (L.) Beauv. The test can be described thus: Herbicidal effect by upland field soil treatment. It is filed as in vivo. Further details: scale not given here. Conditions: active ingredient 1000 g/ha, examined at 21st day from treatment.
Description: as §1
On to `CC1(C)CC(S(=O)(=O)Cc2nn(-c3ccccc3)cc2OC(F)F)=NO1` [6-0003], for which the “herbicidal effect (index per standard of Table 21), Setaria viridis (L.) Beauv.” value is 5.
As to `CCOc1snc(C)c1CS(=O)(=O)C1=NOC(C)(C)C1` [4-0008], the “herbicidal effect (index per standard of Table 21), Setaria viridis (L.) Beauv.” value is reported as 5.
Consider `CC1(C)CC(S(=O)(=O)Cc2c(Cl)nn(CC#N)c2C(F)(F)F)=NO1` [3-0135], for which the “herbicidal effect (index per standard of Table 21), Setaria viridis (L.) Beauv.” value was 5.
As for `CC1(C)CC(S(=O)(=O)Cc2c(Cl)nn(CS(C)(=O)=O)c2C(F)(F)F)=NO1` [3-0131], the “herbicidal effect (index per standard of Table 21), Setaria viridis (L.) Beauv.” value was found to be 5.
In the case of `CC1(C)CC(S(=O)(=O)Cc2c(Cl)nn(Cc3ccccc3)c2C(F)(F)F)=NO1` [3-0088], the “herbicidal effect (index per standard of Table 21), Setaria viridis (L.) Beauv.” value is reported as 4.
Still for that read-out and setting: with `CC1(C)CC(S(=O)(=O)Cc2oc3ccccc3c2Br)=NO1` [10-0014] the figure was 5; with `CC1(C)CC(S(=O)(=O)Cc2c(C(F)(F)F)nn(C3CCCCC3)c2Cl)=NO1` [3-0091], 5; with `CC1(C)CC(S(=O)(=O)Cc2c(C(F)(F)F)nn(Cc3ccccc3)c2Cl)=NO1` [3-0087], 5.
`CSCn1nc(Cl)c(CS(=O)(=O)C2=NOC(C)(C)C2)c1C(F)(F)F` [3-0129]: the “herbicidal effect (index per standard of Table 21), Setaria viridis (L.) Beauv.” value was 5.
On to `CC1(C)CC(S(=O)(=O)Cc2cc3ccccc3o2)=NO1` [10-0012], for which the “herbicidal effect (index per standard of Table 21), Setaria viridis (L.) Beauv.” value is listed as 4.
Consider `Cc1ccc(CS(=O)(=O)C2=NOC(C)(C)C2)s1` [1-0003], for which the “herbicidal effect (index per standard of Table 21), Setaria viridis (L.) Beauv.” value worked out at 5.
As for `CCOc1c(C)nn(-c2ccccc2)c1CS(=O)(=O)C1=NOC(C)(C)C1` [5-0005], the “herbicidal effect (index per standard of Table 21), Setaria viridis (L.) Beauv.” value was determined as 4.
For the compound `CC1(C)CC(S(=O)(=O)Cc2c(C(F)(F)F)nn(CS(C)(=O)=O)c2Cl)=NO1` [3-0130], the “herbicidal effect (index per standard of Table 21), Setaria viridis (L.) Beauv.” value is reported as 5.

Another test deals with Monochoria vaginalis (Murm. f.) Presl var. plantaginea (Roxb.) Solms-Laub. The test can be described thus: Herbicidal effect by paddy field soil treatment. It is filed as in vivo. Further details: scale not given here. Conditions: wettable powder, active ingredient 1000 g/ha, examined at the 21st day from the treatment. As for the experimental part: (§2) A paddy field soil was filled in a plastic pot of 100 cm^2 and subjected to puddling. Then, seeds of Echinochloa oryzicola Vasing and Monochoria vaginalis (Murm. f.) Presl var. plantaginea (Roxb.) Solms-Laub. were sowed and water was filled in a depth of 3 cm. Next day, wettable powders produced in accordance with the Formulation 1 were diluted with water and dropped on the water surface. The application amount of each wettable powder was 1,000 g per 1 hectare in terms of the active ingredient. Then, breeding was made in a greenhouse, and the herbicidal effect of each wettable powder was examined at the 21st day from the treatment in accordance with the standard shown in Table 21.
On to `CC1(C)CC(S(=O)(=O)Cc2nn(-c3ccccc3)cc2OC(F)F)=NO1` [6-0003], for which the “Herbicidal effect index, Monochoria vaginalis (Burm. F.) Presl var. plantaginea (Roxb.) Solms-Laub.” value (“Herbicidal effect index … (Roxb.) Solms-Laub.” for short) is reported as 5.
Take `CCOc1snc(C)c1CS(=O)(=O)C1=NOC(C)(C)C1` [4-0008]: the “Herbicidal effect index … (Roxb.) Solms-Laub.” value was 5.
The same measure, in the same setting: with `CC1(C)CC(S(=O)(=O)Cc2c(Cl)nn(CC#N)c2C(F)(F)F)=NO1` [3-0135] the figure was 5; with `CC1(C)CC(S(=O)(=O)Cc2c(Cl)nn(CS(C)(=O)=O)c2C(F)(F)F)=NO1` [3-0131], 5; with `CC1(C)CC(S(=O)(=O)Cc2c(Cl)nn(Cc3ccccc3)c2C(F)(F)F)=NO1` [3-0088], 5.
The same measure, in the same setting: with `CC1(C)CC(S(=O)(=O)Cc2oc3ccccc3c2Br)=NO1` [10-0014] the figure was 5; with `CC1(C)CC(S(=O)(=O)Cc2c(C(F)(F)F)nn(C3CCCCC3)c2Cl)=NO1` [3-0091], 5; with `CC1(C)CC(S(=O)(=O)Cc2c(C(F)(F)F)nn(Cc3ccccc3)c2Cl)=NO1` [3-0087], 5.
For the compound `CSCn1nc(Cl)c(CS(=O)(=O)C2=NOC(C)(C)C2)c1C(F)(F)F` [3-0129], the “Herbicidal effect index … (Roxb.) Solms-Laub.” value is 5.
The same measure, in the same setting: the figure for `CC1(C)CC(S(=O)(=O)Cc2cc3ccccc3o2)=NO1` [10-0012] is 5.
Regarding `Cc1ccc(CS(=O)(=O)C2=NOC(C)(C)C2)s1` [1-0003], the “Herbicidal effect index … (Roxb.) Solms-Laub.” value was 5.
For `CCOc1c(C)nn(-c2ccccc2)c1CS(=O)(=O)C1=NOC(C)(C)C1` [5-0005], the “Herbicidal effect index … (Roxb.) Solms-Laub.” value was found to be 5.
Same read-out and setting: with `CC1(C)CC(S(=O)(=O)Cc2c(C(F)(F)F)nn(CS(C)(=O)=O)c2Cl)=NO1` [3-0130] the figure was 5.

A further test concerns Echinochloa oryzicola Vasing. The experiment in a line: Herbicidal effect by paddy field soil treatment. The class given is in vivo. Details: scale not given here. Conditions: wettable powder, active ingredient 1000 g/ha, examined at the 21st day from the treatment. As for the experimental part: as §2
For `CC1(C)CC(S(=O)(=O)Cc2nn(-c3ccccc3)cc2OC(F)F)=NO1` [6-0003], the “Herbicidal effect index, Echinochloa oryzicola Vasing” value came to 5.
As to `CCOc1snc(C)c1CS(=O)(=O)C1=NOC(C)(C)C1` [4-0008], the “Herbicidal effect index, Echinochloa oryzicola Vasing” value was 5.
`CC1(C)CC(S(=O)(=O)Cc2c(Cl)nn(CC#N)c2C(F)(F)F)=NO1` [3-0135]: the “Herbicidal effect index, Echinochloa oryzicola Vasing” value was determined as 5.
Still for that read-out and setting: the figure for `CC1(C)CC(S(=O)(=O)Cc2c(Cl)nn(CS(C)(=O)=O)c2C(F)(F)F)=NO1` [3-0131] is 5.
Same read-out and setting: the figure for `CC1(C)CC(S(=O)(=O)Cc2c(Cl)nn(Cc3ccccc3)c2C(F)(F)F)=NO1` [3-0088] is 5.
Consider `CC1(C)CC(S(=O)(=O)Cc2oc3ccccc3c2Br)=NO1` [10-0014], for which the “Herbicidal effect index, Echinochloa oryzicola Vasing” value worked out at 5.
Consider `CC1(C)CC(S(=O)(=O)Cc2c(C(F)(F)F)nn(C3CCCCC3)c2Cl)=NO1` [3-0091], for which the “Herbicidal effect index, Echinochloa oryzicola Vasing” value was determined as 5.
In the case of `CC1(C)CC(S(=O)(=O)Cc2c(C(F)(F)F)nn(Cc3ccccc3)c2Cl)=NO1` [3-0087], the “Herbicidal effect index, Echinochloa oryzicola Vasing” value is 5.
For the compound `CSCn1nc(Cl)c(CS(=O)(=O)C2=NOC(C)(C)C2)c1C(F)(F)F` [3-0129], the “Herbicidal effect index, Echinochloa oryzicola Vasing” value is given as 5.
`CC1(C)CC(S(=O)(=O)Cc2cc3ccccc3o2)=NO1` [10-0012]: the “Herbicidal effect index, Echinochloa oryzicola Vasing” value came out at 5.
Regarding `Cc1ccc(CS(=O)(=O)C2=NOC(C)(C)C2)s1` [1-0003], the “Herbicidal effect index, Echinochloa oryzicola Vasing” value stood at 5.
`CCOc1c(C)nn(-c2ccccc2)c1CS(=O)(=O)C1=NOC(C)(C)C1` [5-0005]: the “Herbicidal effect index, Echinochloa oryzicola Vasing” value came to 5.
In the case of `CC1(C)CC(S(=O)(=O)Cc2c(C(F)(F)F)nn(CS(C)(=O)=O)c2Cl)=NO1` [3-0130], the “Herbicidal effect index, Echinochloa oryzicola Vasing” value came to 5.
